Assay [1] has as its system L-428. The assay can be described thus: Cytotoxicity against human L428 cells after 48 by XTT assay. The class given is functional, cell-based.
The subject of assay [2] is L-428. The assay can be described thus: Inhibition of NFkappaB p65 subunit expression in cytosolic fractions of human L428 cells at 2.5 ug/ml after 2 hrs by Western method. Format: functional, cell-based.
Assay [3] has as its system L-428. Description: Inhibition of NFkappaB RelB subunit expression in nuclear fractions of human L428 cells at 2.5 ug/ml after 2 hrs by Western method. The class given is functional, cell-based.
Assay [4] deals with L-428. Description: Inhibition of NFkappaB p50 subunit expression in nuclear fractions of human L428 cells at 2.5 ug/ml after 2 hrs by Western method. Format: functional, cell-based.
For assay [5], the system named is L-428. The assay can be described thus: Cytotoxicity against human L428 cells after 24 by XTT assay. The class given is functional, cell-based.
Assay [6] deals with L-428. The assay can be described thus: Inhibition of NFkappaB p50 subunit expression in cytosolic fractions of human L428 cells at 2.5 ug/ml after 2 hrs by Western method. The class given is functional, cell-based.
Assay [7] concerns A549. Description: Anti-migratory activity against human A549 cells assessed as reduction in wound closure at 2.6 uM after 48 hrs by wound-scratch assay. The class given is functional, cell-based.
Assay [8] relates to L-428. The assay can be described thus: Inhibition of NFkappaB p65 subunit expression in nuclear fractions of human L428 cells at 2.5 ug/ml after 2 hrs by Western method. The class given is functional, cell-based.
Assay [9] has as its system L-428. Description: Inhibition of NFkappaB RelB subunit expression in cytosolic fractions of human L428 cells at 2.5 ug/ml after 2 hrs by Western method. The class given is functional, cell-based.
A short description of assay [10]: (§1) Inhibition of NF-kappaB (unknown origin) expressed in human L428 cells after 2 hrs by luciferase reporter gene assay. The class given is cell-based. The following applies: L-428, 2 h.
For assay [11], the species on record is Homo sapiens. Described as §1. The class given is cell-based.
In assay [12] the test system is A549. The assay can be described thus: Anti-migratory activity against human A549 cells assessed as reduction in wound closure at 5.6 uM after 48 hrs by wound-scratch assay. Format: functional, cell-based.
The test system of assay [13] is A549. The assay can be described thus: Anti-migratory activity against human A549 cells assessed as reduction in wound closure at 7.94 uM after 48 hrs by wound-scratch assay. The class given is functional, cell-based.

SMILES strings stand for the structures. Calls of active or inactive are those of the source. The rule behind the calls is not given here.

As to `O=C(CCCCCCCC(Cl)CN=C=S)CC(=O)N[C@H]1CCOC1=O` (some centres undefined), the values for the half-inhibitory concentration (IC50) in assay [1], in assay [5] and in assay [10] were 18.3 µM, 15.1 µM and 12.8 µM, respectively. The inhibition entry in [2], in assay [3], in assay [4], in [6], in assay [8] and in assay [9] was “Active” throughout. In assay [7], the result was Active. Moreover, in [11], the inhibition entry is “Dose-dependent effect”.
Consider `COc1cc(/C=C/C(=O)CC(=O)/C=C/c2ccc(O)c(OC)c2)ccc1O`, for which, in assay [11], the inhibition result was “Active”.
As to `CCCCCCCCCCCN=C=S`, the inhibition entry in [11] is “Dose-dependent effect”.
Still for that read-out and setting: as for `CCCCCCCCCC(=O)CC(=O)N[C@H]1CCOC1=O`, the entry is “Dose-dependent effect”.
On to `O=C(CCCCCCCCCN=C=S)CC(=O)N[C@H]1CCOC1=O`, for which the IC50 is 12.4 µM in assay [1], 13.3 µM in [5] and 4.1 µM in assay [10]. For the same molecule, the inhibition result in assay [2], in assay [3], in assay [4], in [6], in [8] and in assay [9] was “Active” each time. The inhibition entry in [11] was “Dose-dependent effect”. Further, the outcome in assay [12] was Active.
In the case of `CCCC(=O)N[C@H]1CCOC1=O`, in assay [11], the inhibition entry is “Dose-dependent effect”.
On to `O=C1C=C(Br)/C(=C/Br)O1`, for which the concentration for half-maximal inhibition (IC50) in assay [1] was 3.05 µM; in assay [5], 5.16 µM; in assay [10], 9.9 µM. In [13], the result was Active. Also, the inhibition entry in [2], in assay [3], in assay [4], in assay [6], in assay [8] and in assay [9] was “Active” throughout. In addition, the inhibition entry in assay [11] is “Dose-dependent effect”.
As to `C#CCCCCCCCCC(=O)CC(=O)N[C@H]1CCOC1=O`, in assay [11], the inhibition entry was “Dose-dependent effect”.
`CCCCCCCc1[nH]c2ccccc2c(=O)c1O`: the inhibition entry in assay [11] is “Dose-dependent effect”.

The values above are taken from ChEMBL document CHEMBL4033709, “Quorum sensing modulators exhibit cytotoxicity in Hodgkin's lymphoma cells and interfere with NF-κB signaling” (Bioorg Med Chem Lett, 2017).
